In US9682961B2, “Quinazoline derivative” (CARNA BIOSCIENCES, INC., priority 2013, dated 2017):

The compounds below were run on Wnt/β-catenin signaling pathway (assay: TCF-luciferase reporter gene assay (Wnt-3a stimulated HEK 293 cells)). Details: Homo sapiens, HEK293, Wnt-3a stimulation, read-out: Inhibitory activity against the Wnt/β-catenin signaling pathway.
Format: cell-based
Method: Evaluation of inhibitory activity of the compounds of the present invention against the Wnt/β-catenin signaling pathway was performed by evaluating the inhibitory activity of the compounds of the present invention against the Wnt/β-catenin signaling pathway activated by the Wnt-3a ligand using a commercially available TCF-luciferase reporter gene assay system.
In a T75 flask, HEK 293 cells (ATCC No. CRL-1573) were added to a DMEM medium (manufactured by NACALAI TESQUE, INC., No. 08459-35) supplemented with 10% FBS (AusGeneX PTY LTD.) and 1% Penicillin/Streptomycin (NACALAI TESQUE, INC.). The cells in the flask were cultured in a 5% CO2 incubator.
The cultured HEK 293 cells were diluted with a DMEM medium supplemented with only 10% FBS so as to have a cell concentration of 2×10^5 cells/mL, and 100 μL each of the diluted cells were seeded into respective wells of 96-well plates (PerkinElmer Inc., ViewPlate No. 6005181), followed by culturing overnight in the 5% CO2 incubator. To an OptiMEM medium (Invitrogen® No. 11058), pGL4.49 [luc2p/TCF-LEF-RE/Hygro] plasmid DNA (Promega Corporation) and FuGENE® HD (Promega No. E2691) were added so as to have concentrations of 1 μg/mL and 3 μg/mL, respectively, to prepare a transfection solution as described in the protocol attached to the reagent. To the respective wells containing the HEK 293 cells cultured overnight, 100 μL each of the transfection solution was added gently, followed by culturing overnight in the 5% CO2 incubator to perform transfection.
To a DMEM medium, 0.5% charcoal/dextran treated Fetal Bovine Serum (Thermo Scientific No. SH30068.02) and LiCl (Sigma-Aldrich No. L9650) were added to prepare a LiCl-containing medium (final concentration of LiCl: 10 mM). The medium in the respective wells of the HEK 293 cells cultured overnight and transfected with a reporter gene was removed by decantation. The LiCl-containing medium (90 μL) was added gently to each well, followed by culturing overnight in the 5% CO2 incubator.
A DMSO stock solution of the compound to be tested was diluted 100-fold with a LiCl-containing medium so as to prepare a solution of the compound to be tested, which is 10 times the test concentration. Further, Recombinant Mouse Wnt-3a (R&D Systems, Inc. #1324-WN) was dissolved in a 0.1% BSA-PBA solution so as to have a concentration of 40 μg/mL, and the resultant solution was diluted with a LiCl-containing medium so as to have a concentration of 100 ng/mL, to prepare a Wnt-3a solution. To each well of the HEK 293 cells cultured overnight in the LiCl-containing medium, 10 μL each of the solution of the compound to be tested was added, followed by culturing in the 5% CO2 incubator for 2 hours (the final concentration of the compound to be tested: 3-0.03 μM). Thereafter, 10 μL each of the Wnt-3a solution was added to the respective wells, followed by further culturing for 5 hours.
Using ONE-Glo™ Luciferase Assay System (Promega Corporation, No. E6110), the luciferase activity of the cells in the wells was measured by a microplate reader (Synergy H1, BioTek Instruments, Inc.) An IC50 value was calculated from the luminescence intensity of each compound concentration, supposing that the luminescence intensity of a group with no addition of the compound and with Wnt-3a stimulation was 100%, and that the luminescence intensity of a group with no addition of the compound and with no Wnt-3a stimulation was 0%.
With O[C@H]1CC[C@@H](Oc2cccc3cnc(Nc4ccc5cnccc5c4)nc23)CC1 [Example 39, cis-4-{[2-(isoquinolin-6-ylamino)quinazolin-8-yl]oxy}cyclohexanol] the IC50 was 300 to 1000 nM. O[C@H]1CC[C@@H](Oc2cccc3cnc(Nc4ccc5scnc5c4)nc23)CC1 [Example 36, cis-4-{[2-(benzo[d]thiazol-5-ylamino)quinazolin-8-yl]oxy}cyclohexanol] gave an IC50 of under 300 nM. In the case of O[C@H]1CC[C@@H](Oc2c(Br)ccc3cnc(Nc4ccc5nc[nH]c5c4)nc23)CC1 [Example 31], the IC50 is reported as under 300 nM. Work on O[C@H]1CC[C@@H](Oc2cccc3cnc(Nc4ccc5ncccc5c4)nc23)CC1 [Example 35, cis-4-{[2-(quinolin-6-ylamino)quinazolin-8-yl]oxy}cyclohexanol] yielded an IC50 of 300 to 1000 nM. In the case of C[C@H](O)c1nc2ccc(Nc3ncc4cccc(O[C@H]5CC[C@@H](O)CC5)c4n3)cc2[nH]1 [Example 27, cis-4-{[2-({2-[(S)-1-hydroxyethyl]-1H-benzo[d]imidazol-6-yl}amino)quinazolin-8-yl]oxy}cyclohexanol], the IC50 is reported as 300 to 1000 nM. Cc1nc2ccc(Nc3ncc4ccc(Br)c(O[C@H]5CC[C@@H](O)CC5)c4n3)cc2[nH]1 [Example 18, cis-4-({7-bromo-2-[(2-methyl-1H-benzo[d]imidazol-6-yl)amino]quinazolin-8-yl}oxy)cyclohexanol] was tested, and the IC50 was 300 to 1000 nM. In the case of O[C@H]1CC[C@@H](Oc2cc(F)cc3cnc(Nc4ccc5nc[nH]c5c4)nc23)CC1 [Example 32, cis-4-({2-[(1H-benzo[d]imidazol-6-yl)amino]-6-fluoroquinazolin-8-yl}oxy)cyclohexanol], the IC50 is reported as 300 to 1000 nM. With O[C@H]1CC[C@@H](Oc2cccc3cnc(Nc4ccnc5ccccc45)nc23)CC1 [Example 37, cis-4-{[2-(quinolin-4-ylamino)quinazolin-8-yl]oxy}cyclohexanol] the IC50 was under 300 nM. Work on O[C@H]1CC[C@@H](Oc2c(F)ccc3cnc(Nc4ccc5ncsc5c4)nc23)CC1 [Example 42, cis-4-{[2-(benzo[d]thiazol-6-ylamino)-7-fluoroquinazolin-8-yl]oxy}cyclohexanol] yielded an IC50 of under 300 nM. For COCc1nc2ccc(Nc3ncc4cccc(O[C@H]5CC[C@@H](O)CC5)c4n3)cc2[nH]1 [Example 25, cis-4-[(2-{[2-(methoxymethyl)-1H-benzo[d]imidazol-6-yl]amino}quinazolin-8-yl)oxy]cyclohexanol], the IC50 was 300 to 1000 nM. O[C@H]1CC[C@@H](Oc2cccc3cnc(Nc4ccc5[nH]c(CN6CCCC6)nc5c4)nc23)CC1 [Example 13, cis-4-[(2-{[2-(pyrrolidin-1-ylmethyl)-1H-benzo[d]imidazol-5-yl]amino}quinazolin-8-yl)oxy]cyclohexanol] was tested, and the IC50 was under 300 nM. Compound O[C@H]1CC[C@@H](Oc2cccc3cnc(Nc4ccc5nc(C(F)(F)F)[nH]c5c4)nc23)CC1 [Example 26, cis-4-((2-{[2-(trifluoromethyl)-1H-benzo[d]imidazol-6-yl]amino}quinazolin-8-yl)oxy)cyclohexanol] has an IC50 of 1000 to 3000 nM. Work on O[C@H]1CC[C@@H](Oc2cccc3cnc(Nc4ccc5ccncc5c4)nc23)CC1 [Example 40, cis-4-{[2-(isoquinolin-7-ylamino)quinazolin-8-yl]oxy}cyclohexanol] yielded an IC50 of 1000 to 3000 nM. Compound Cc1ccc2cc(Nc3ncc4cccc(O[C@H]5CC[C@@H](O)CC5)c4n3)ccc2n1 [Example 38, cis-4-({2-[(2-methylquinolin-6-yl)amino]quinazolin-8-yl}oxy)cyclohexanol] has an IC50 of 300 to 1000 nM. With O[C@H]1CC[C@@H](Oc2cccc3cnc(Nc4cccc5cnccc45)nc23)CC1 [Example 41, cis-4-{[2-(isoquinolin-5-ylamino)quinazolin-8-yl]oxy}cyclohexanol] the IC50 was 300 to 1000 nM. O[C@H]1CC[C@@H](Oc2cccc3cnc(Nc4ccnc5cc(F)ccc45)nc23)CC1 [Example 45, cis-4-({2-[(7-fluoroquinolin-4-yl)amino]quinazolin-8-yl}oxy)cyclohexanol] gave an IC50 of 300 to 1000 nM. Cc1nc2c(C)cc(Nc3ncc4cccc(O[C@H]5CC[C@@H](O)CC5)c4n3)cc2[nH]1 [Example 20, cis-4-({2-[(2,4-dimethyl-1H-benzo[d]imidazol-6-yl)amino]quinazolin-8-yl}oxy)cyclohexanol] showed an IC50 of 300 to 1000 nM. Cc1nc2c(Br)cc(Nc3ncc4cccc(O[C@H]5CC[C@@H](O)CC5)c4n3)cc2[nH]1 [Example 19, cis-4-({2-[(4-bromo-2-methyl-1H-benzo[d]imidazol-6-yl)amino]quinazolin-8-yl}oxy)cyclohexanol] gave an IC50 of 1000 to 3000 nM. In the case of OCc1cc(Nc2ncc3cccc(O[C@H]4CC[C@@H](O)CC4)c3n2)cc2[nH]cnc12 [Example 29, cis-4-[(2-{[4-(hydroxymethyl)-1H-benzo[d]imidazol-6-yl]amino}quinazolin-8-yl)oxy]cyclohexanol], the IC50 is reported as under 300 nM. With O[C@H]1CC[C@@H](Oc2c(F)ccc3cnc(Nc4ccc5ncccc5c4)nc23)CC1 [Example 43, cis-4-{[7-fluoro-2-(quinolin-6-ylamino)quinazolin-8-yl]oxy}cyclohexanol] the IC50 was under 300 nM. Cc1ccc2cnc(Nc3ccc4nc[nH]c4c3)nc2c1O[C@H]1CC[C@@H](O)CC1 [Example 17, cis-4-({2-[(1H-benzo[d]imidazol-6-yl)amino]-7-methylquinazolin-8-yl}oxy)cyclohexanol] gave an IC50 of 300 to 1000 nM. With Cc1cc2nc[nH]c2cc1Nc1ncc2cccc(O[C@H]3CC[C@@H](O)CC3)c2n1 [Example 30, cis-4-({2-[(5-methyl-1H-benzo[d]imidazol-6-yl)amino]quinazolin-8-yl}oxy)cyclohexanol] the IC50 was 300 to 1000 nM. With OCc1n[nH]c2cc(Nc3ncc4ccc(F)c(O[C@H]5CC[C@@H](O)CC5)c4n3)ccc12 [Example 44, cis-4-[(7-fluoro-2-{[3-(hydroxymethyl)-1H-indazol-6-yl]amino}quinazolin-8-yl)oxy]cyclohexanol] the IC50 was under 300 nM. COc1ccc2c(Nc3ncc4cccc(O[C@H]5CC[C@@H](O)CC5)c4n3)ccnc2c1 [Example 46, cis-4-({2-[(7-methoxyquinolin-4-yl)amino]quinazolin-8-yl}oxy)cyclohexanol] gave an IC50 of 300 to 1000 nM. In the case of OCc1nc2cc(Nc3ncc4cccc(O[C@H]5CC[C@@H](O)CC5)c4n3)ccc2[nH]1 [Example 14, cis-4-[(2-{[2-(hydroxymethyl)-1H-benzo[d]imidazol-5-yl]amino}quinazolin-8-yl)oxy]cyclohexanol], the IC50 is reported as 300 to 1000 nM.
